# Data taken from patent publication US6596863B2, “Medical composition containing nitroetheneamine Derivative or salt there of as active constituent” (Ishihara Sangyo Kaisha, Ltd., priority 1998, dated 2003).
# Read-outs that look alike come from different tables or passages of the source.
# Assays:
# [1] = target: T1, human MMP-9 (gelatinase B) (Homo sapiens, UniProt P14780); experiment: Inhibition activity against human MMP-9 (gelatinase B), fluorescent peptide substrate; format: biochemical
# T1 construct: endogenous in cells; host or cells: HT1080 human fibrosarcoma cells (ATCC CCL-121), PMA-stimulated; enzyme purified from the culture supernatant
# Description: Human MMP-9 (gelatinase B) was purified by the following method from a culture supernatant of HT1080 cells (human fibrosarcoma).
# 2.5×10^6 HT1080 cells (ATCC CCL-121, purchased from Dainippon Seiyaku) were inoculated to a tissue culture dish (Code No. 3020-100, manufactured by Iwaki Glass Co., Ltd.) having a diameter of 10 cm and containing 10 ml of Dulbecco's Modified Eagle Medium (DME, No. D-5648, manufactured by Sigma Co.) containing 10% fetal bovine serum (FBS: REHATUIN™, Code No. 1020-90, manufactured by Intergen Co.) and cultured for 72 hours at 37° C. in an atmosphere comprising 5% of CO2 and 95% of air (Carbon Dioxide Incubator LNA-122D Model, manufactured by Tabai Co.). Then, the medium was changed to 10 ml of a DME culture medium containing no FBS, and phorbol 12-myristate 13-acetate (PMA, code No. 163-114851, manufactured by Wako Pure Chemical Industries, Ltd.) was added so that the final concentration became 10 ng/ml. Under the same conditions, the culturing was carried out for further 20 hours, whereupon the culture supernatant was collected and subjected to cool centrifugation at 4° C. for 5 minutes (cool centrifugal separator, manufactured by Hitachi) to remove cell fragments.
# The pH of a conditioned medium (50 ml) containing MMP-9, thus prepared, was adjusted to 8.0 with 0.2N NaOH. […] Namely, the above-mentioned conditioned medium was passed through DEAE-Sephacel (manufactured by Pharmacia, gel volume: about 35 ml) preliminarily equilibrated with 50 mM Tris-HCl, pH 8.0 (A buffer), and a non-adsorption fraction was collected. Then, it was added to Dye Matrix Gel Green A (manufactured by Amicon Co., gel volume: about 6 ml) preliminarily equilibrated with 50 mM Tris-HCl, pH 7.5/10 MM CaCl2/0.05% Brij 35/0.02% NaN3 (B buffer) and thoroughly washed with the same buffer, whereupon the adsorbed enzyme was eluted with a 1M NaCl-containing B buffer. About 7.5 ml of the eluted fraction was diluted twice with the B buffer and added to Gelatin-Sepharose 4B (manufactured by Pharmacia, gel volume: about 6 ml) preliminarily equilibrated with a 0.5 M NaCl-containing B buffer. It was thoroughly washed with a 0.5M NaCl-containing B buffer, and eluted with the B buffer containing 10% of dimethylsulfoxide (DMSO) and 0.5 M of NaCl. 5.5 ml of the eluted fraction was dialyzed against a 0.1 M NaCl-containing B buffer to obtain 5.2 ml of a purified enzyme solution. The purified MMP-9 standard product was confirmed to have a single band of 92 kDa by a protein staining by SDS electrophoresis, and further, it was confirmed to have an adequate gelatin decomposing activity by gelatinzymography (carried out in accordance with a method by Howard E. W. et al; Journal Biological Chemistry, Vol. 266, 13064-13069, 1991) and to have an adequate substrate decomposing activity by the after-mentioned measurement employing a fluorescent peptide substrate specific to MMP.
# The inhibition activity against human MMP-9 was measured by the following method in accordance with the method by C. G. Knight et al (FEBS Letters, Vol, 296, 263-266, 1992) employing a fluorescent peptide substrate (7-methoxycoumarin-4-yl)Acetyl-Pro-Leu-Gly-Leu-(3-[2,4-dinitrophenyl]—Ala—Arg-NH2, Code 3163-VC, manufactured by Peptide Institute, Inc.
# Further, as the case requires, commercially available human MMP-9 purified enzyme (No. YU-18003, manufactured by Kabushiki Kaisha Yagai Chuo Kenkyusho; used in a final concentration of from 0.0125 to 0.025 unit/ml, No. CC079, manufactured by Chemicon International, Inc.; used in a final concentration of 0.2 μg/ml) was used for the tests. […]
# [2] = intermediates, compounds of the formula (IV), 1st measurement, read-out: MMP-9 inhibition activities IC50, 1st
# [3] = intermediates, compounds of the formula (IV), 2nd measurement, read-out: MMP-9 inhibition activities IC50, 2nd
# [4] = intermediates, compounds of the formula (IV), average of 1st and 2nd (or single measurement), read-out: MMP-9 inhibition activities IC50, Average
# [5] = compounds of the formula (I), 1st measurement, read-out: MMP-9 inhibition activities IC50, 1st
# [6] = compounds of the formula (I), average of 1st and 2nd (or single measurement), read-out: MMP-9 inhibition activities IC50, Average
# [7] = compounds of the formula (I), 2nd measurement, read-out: MMP-9 inhibition activities IC50, 2nd
# T1 sequence (P14780 107-707 limits assumed): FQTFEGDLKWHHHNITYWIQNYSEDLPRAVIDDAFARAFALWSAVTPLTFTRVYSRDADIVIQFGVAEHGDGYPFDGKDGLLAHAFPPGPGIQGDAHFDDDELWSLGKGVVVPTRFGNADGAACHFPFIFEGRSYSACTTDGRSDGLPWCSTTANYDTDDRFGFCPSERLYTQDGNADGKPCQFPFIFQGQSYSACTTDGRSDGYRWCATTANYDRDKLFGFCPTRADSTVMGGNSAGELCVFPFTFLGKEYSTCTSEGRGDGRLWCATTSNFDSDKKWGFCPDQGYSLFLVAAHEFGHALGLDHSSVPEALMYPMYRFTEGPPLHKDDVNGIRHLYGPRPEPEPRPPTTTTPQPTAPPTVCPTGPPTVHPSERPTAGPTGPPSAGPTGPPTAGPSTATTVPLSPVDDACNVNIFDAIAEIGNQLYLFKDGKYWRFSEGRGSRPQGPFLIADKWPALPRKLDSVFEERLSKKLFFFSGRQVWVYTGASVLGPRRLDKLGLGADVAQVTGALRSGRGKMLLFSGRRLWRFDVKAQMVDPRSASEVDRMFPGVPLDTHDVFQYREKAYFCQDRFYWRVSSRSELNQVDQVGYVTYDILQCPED
"IC50 [1, 2]","IC50 [1, 3]","IC50 [1, 4]",melting point,"IC50 [1, 5]","IC50 [1, 6]","IC50 [1, 7]",Structure (SMILES)
38.9 µM,49.6 µM,44.3 µM,118 to 121 °C,–,–,–,COc1cccc(NC(=C[N+](=O)[O-])SC)c1 [Intermediate 20]
31.6 µM,26 µM,28.8 µM,153 to 155 °C,–,–,–,CSC(=C[N+](=O)[O-])Nc1ccc2c(c1)OCO2 [Intermediate 51]
–,–,–,68 to 70 °C,44.6 µM,46.3 µM,47.9 µM,CCOC(=O)Cc1ccc(NC(=C[N+](=O)[O-])NN)cc1 [compound 73]
–,–,–,144 °C,21.6 µM,25.9 µM,30.2 µM,COc1cccc(NC(=C[N+](=O)[O-])NN)c1 [compound 52]
–,–,–,250 °C,41.4 µM,41.4 µM,40.7 µM,CNC(=C[N+](=O)[O-])NNc1cccc(C(=O)O)c1 [compound 42]
–,–,–,177 °C (dec.),40.8 µM,41.2 µM,41.5 µM,CSc1ccc(NC(=C[N+](=O)[O-])NN)cc1 [compound 72]
38.7 µM,33.9 µM,36.3 µM,184 to 188 °C,–,–,–,CSC(=C[N+](=O)[O-])Nc1c(C)nn(C)c1C [Intermediate 54]
–,–,–,186 °C (dec.),49.8 µM,46.8 µM,43.9 µM,CNC(=C[N+](=O)[O-])NNc1ccc(C)cc1 [Compound No. 16]
–,–,–,190 °C (dec.),34 µM,33.9 µM,33.8 µM,NNC(=C[N+](=O)[O-])Nc1ccc(O)cc1 [compound 76]
–,–,–,179 °C (dec.),42.9 µM,40.2 µM,37.4 µM,CCCOc1ccc(NC(=C[N+](=O)[O-])NN)cc1 [compound 71]
–,–,–,189 °C (dec.),46.8 µM,49.8 µM,52.7 µM,CNC(=C[N+](=O)[O-])NNc1cccc(C)c1 [Compound No. 15]

# More lines, now with the values behind:
Structure (SMILES),"IC50 [1, 2]","IC50 [1, 3]","IC50 [1, 4]",melting point,"IC50 [1, 5]","IC50 [1, 6]","IC50 [1, 7]"
CNC(=C[N+](=O)[O-])NNc1cc(C(F)(F)F)cc(OCCOC(C)(C)C)n1 [compound 193],–,–,–,170 °C (dec.),10.5 µM,10.5 µM,–
CNC(=C[N+](=O)[O-])NNC(O)C(F)(F)F (centres unmarked) [compound 23],–,–,–,144 to 145 °C,42.5 µM,48.7 µM,54.8 µM
CNC(=C[N+](=O)[O-])NNc1cc(C(F)(F)F)cc(C)n1 [compound 27],–,–,–,161 to 162 °C,26.6 µM,25.6 µM,24.5 µM
NNC(=C[N+](=O)[O-])Nc1ccccc1 [compound 87],–,–,–,153 °C (dec.),20.5 µM,22.9 µM,25.3 µM
COc1ccccc1NC(=C[N+](=O)[O-])NN [compound 57],–,–,–,135.5 to 136 °C,38.7 µM,36.6 µM,35.1 µM
CNC(=C[N+](=O)[O-])NNc1nc(-c2ccccc2)nc2ccccc12 [compound 148],–,–,–,272 °C (dec.),33.5 µM,27.6 µM,21.7 µM
CNC(=C[N+](=O)[O-])NNc1cc(C(F)(F)F)cc(OCC2CCCO2)n1 (centres unmarked) [compound 129],–,–,–,97 to 99 °C,11.8 µM,9.3 µM,6.7 µM
CNC(=C[N+](=O)[O-])NNc1cc(C(F)(F)F)cc(OCC2CC2)n1 [compound 184],–,–,–,167 °C (dec.),20 µM,15.3 µM,10.6 µM
CNC(=C[N+](=O)[O-])NN(C)c1ccc(C(F)(F)F)cn1 [compound 36],–,–,–,153 to 154 °C,19.7 µM,22 µM,24.3 µM
CNC(=C[N+](=O)[O-])NNc1cccc(C(F)(F)F)n1 [compound 168],–,–,–,197 °C (dec.),7.1 µM,7.2 µM,7.3 µM
CNC(=C[N+](=O)[O-])NNc1ccccc1[N+](=O)[O-] [compound 11],–,–,–,194 °C (dec.),31.9 µM,32.8 µM,33.7 µM
Cc1nn(C)c(C)c1NC(=C[N+](=O)[O-])NN [compound 111],–,–,–,210 to 214 °C (dec.),45.5 µM,36.2 µM,26.8 µM
NNC(=C[N+](=O)[O-])NCc1ccncc1 [compound 55],–,–,–,176 °C (dec.),25.3 µM,27.7 µM,30 µM
CNC(=C[N+](=O)[O-])NNc1ncc(C(F)(F)F)cc1Cl [compound 21],–,–,–,168 °C (dec.),11.7 µM,14.9 µM,18.1 µM
CNC(=C[N+](=O)[O-])NNc1cc(C(F)(F)F)cc(OCCCc2cccnc2)n1 [compound 119],–,–,–,149 °C (dec.),28 µM,25.7 µM,23.4 µM
CNC(=C[N+](=O)[O-])NN=Cc1ccc(C(=O)O)cc1 [compound 142],–,–,–,210 °C (dec.),20.4 µM,21.4 µM,22.4 µM
NNC(=C[N+](=O)[O-])NCc1cccc(C(F)(F)F)c1 [compound 77],–,–,–,155 °C,41.4 µM,38.3 µM,35.2 µM
CNC(=C[N+](=O)[O-])NNc1ccccc1Cl [compound 8],–,–,–,178 °C (dec.),36.7 µM,33.4 µM,30.1 µM
CNC(=C[N+](=O)[O-])NN=Cc1ccc2ccccc2c1 [compound 135],–,–,–,190 °C (dec.),28.2 µM,24.3 µM,20.4 µM
CNC(=C[N+](=O)[O-])NN=CC=Cc1ccccc1 [compound 144],–,–,–,180 °C (dec.),4.8 µM,9.9 µM,14.9 µM
NNC(=C[N+](=O)[O-])Nc1cccnc1 [compound 50],–,–,–,175 °C (dec.),25.7 µM,24.3 µM,23 µM
CNC(=C[N+](=O)[O-])NNc1cc(C(F)(F)F)cc(Oc2ccccc2)n1 [compound 126],–,–,–,141 °C (dec.),29.4 µM,25.6 µM,21.8 µM
CNC(=C[N+](=O)[O-])NN=C(C)c1cccnc1 [compound 34],–,–,–,181 °C (dec.),30.2 µM,28.6 µM,26.9 µM
CNC(=C[N+](=O)[O-])NNc1ccc2ccccc2n1 [compound 127],–,–,–,202 °C (dec.),1.4 µM,2.1 µM,2.8 µM
CNC(=C[N+](=O)[O-])NNS(=O)(=O)c1ccccc1 [compound 109],–,–,–,169 to 170 °C (dec.),20.8 µM,23.9 µM,26.9 µM
